Test results taken from patent US9616037B2, “Aryl-phenyl-sulfonamido-cycloalkyl compounds and their use” (PIMCO 2664 Limited, priority 2008, dated 2017).
Converted amounts (≈) assume the structure as drawn.

What was measured:
J774 macrophages = test: Alamar Blue macrophage J774 viability assay; assay type: cell-based; settings: Mus musculus; J774 cells, 72 hours with compound, Alamar Blue readout; read-out: IC50
Procedure: (§1) Initial screening of candidate compounds was performed using in vitro assays to determine potency, metabolic stability and solubility in biologically relevant fluids. Potency was assessed using a viability assay based on the survival of the J774 macrophage cell line. Macrophages are closely related to osteoclasts and have been used previously as a model system for osteoclast survival (see, e.g., Luckman et al., 1998). Like osteoclasts, J774 macrophages are dependent on continued NFκB activation for survival, thereby providing a valuable screen for compounds with anti-inflammatory activity. Metabolic stability was measured by determining the rate of disappearance of compound in the presence of human liver microsomal preparations, as quantified by LC-MS/MS. Solubility was measured by equilibration of the compound in fasted state simulated intestinal fluid (FaSSIF) and quantified by HPLC.
In vitro potency as anti-inflammatory agents was determined for a number of APSAC compounds by incubation with J774 macrophages and subsequent determination of cell viability.
J774 cells were plated at 10^4 cells per well in 100 μL αMEM (α Modified Eagle Medium) in 96-well plates and grown overnight. The next day, test compounds were added to the cultures, and cultures were continued for another 72 hours. At the end of the culture period, cell survival was determined using an Alamar Blue assay as previously described (see, e.g., Nociari et al., 1998).
Alamar Blue is an oxidation-reduction sensitive indicator. The dye itself is in the oxidised state, which is blue and non-fluorescent. The dye can accept electrons from reducing species, such as NADPH and FADH, to form a reduced dye species, which is red and fluorescent. Thus the transformation from oxidised form to reduced form can be measured by fluorimetric or colourimetric means. For fluorescence measurements, 530-560 nm excitation and 590 nm emission wavelengths are typically used. For colourimetric measurements, absorbance at 570 nm (reduced form) and 600 nm (oxidised form) is typically measured. A simple calculation is performed to determine the relative quantities of the two species.
A high ratio of the reducing species, NADPH and FADH, to the corresponding oxidised species, NADP and FAD, is an indicator that cells are proliferating and viable. A low ratio indicates cells that are quiescent or non-viable.
Briefly, Alamar Blue (Biosource International) was added undiluted to the each well (1:10 v/v, 10 μL). The plate was incubated at 37° C. for 3-4 hours and the fluorescence was measured at 590 nm, with a 25 nm bandwidth. A high reading indicated cells with normal viability, and a low reading indicated cells that have been damaged and are no longer proliferating normally. The controls gave a high fluorescence reading, indicating a high number of live, healthy cells. A potent test compound gave a low fluorescence reading. The average results for each test compound (n=5) were expressed as a percent (%) of the average control value.
Addition of Compounds. All of the compounds studied were made up as 100 mM solutions in DMSO. These stock solutions were then diluted 1000-10000× in culture medium (αMEM). From these 100 μM or 10 μM solutions, convenient quantities (3-33 μL) were added directly to the wells so as to give the desired final compound concentration.

[1] = Thermodynamic aqueous solubility in fasted state simulated intestinal fluid (FaSSIF); assay type: physicochemical; settings: pH 6.5, thermodynamic from solid, equilibrated at 25° C. for 24 hours, HPLC
Procedure: as §1, with “Macrophages are closely related to osteoclasts and have been used previously as a model system for osteoclast survival (see, e.g., Luckman et al., 1998).” left out
Thermodynamic aqueous solubility was measured by equilibration of a number of APSAC compounds, in the solid state, with fasted state simulated intestinal fluid (FaSSIF) and quantified by HPLC. Measurement of solubility in FaSSIF provides a valuable model for the prediction of drug dissolution following oral administration.
The pH was adjusted to 6.5 using 1 M NaOH solution.
0.6 mL of a solution containing 100 mg/mL lecithin in methylene chloride was added. The methylene chloride was eliminated under vacuum at about 40° C. The vacuum was drawn for 15 minutes at 250 mbar, followed by 15 minutes at 100 mbar. […] After cooling to room temperature, the solution was then adjusted to 100 mL with blank FaSSIF.
The suspension was equilibrated at 25° C. for 24 hours, and then the pH was measured. The suspension was then filtered through a glass fibre C filter into a 96-well plate. The filtrate was then diluted by a factor of 100. Quantification was made by HPLC with reference to a standard solution of compound at approximately 0.1 mg/mL in DMSO. Different volumes of the standard, diluted and undiluted sample solutions were injected. […] Analysis was performed on an Agilent HP1100 series system equipped with a diode array detector and using ChemStation software vB.02.01-SR1.

caspase 3 = test: Caspase induction study (Nucview488 fluorogenic substrate) in the presence of TNFα; assay type: cell-based; settings: human monocytes, 10 μM test compound, 10 ng/mL TNFα, Nucview488 stain
Procedure: The ability to activate caspase 3 was studied using a fluorogenic enzyme substrate assay.
Briefly, human primary monocytes were isolated from whole blood using Ficoll gradients. The resulting cells were plated into microwell plates for 24 hours after which non-adherent cells were removed by washing. Cells were differentiated in the presence of 100 ng/mL MCSF. Cells were pre-treated with 10 μM test compound for 1 hour prior to stimulation with 10 ng/mL TNFα. Caspase 3 activation as an indicator of apoptosis was detected using the Nucview488 stain, which was added one hour prior to visualisation. The Nucview488 stain indicates the activation of caspase 3 (CPP32, apopain, YAMA), a cysteine peptidase which plays a key role in the induction of apoptosis in individual whole mammalian cells. Essentially, Nucview488 consists of a fluorogenic DNA dye and a DEVD substrate moiety specific for caspase 3. In itself, Nucview488 is nonfluorescent. However, upon entering the cell cytoplasm, Nucview488 is cleaved by caspase 3 to form a high-affinity DNA dye. The released DNA dye migrates to the cell nucleus to stain the nucleus bright green. This fluorescent staining produced in response to caspase 3 activity is monitored using fluorescent light microscopy.

Structure (SMILES): O=S(=O)(N[C@H]1CC[C@@H](CO)C1)c1ccc(-c2ccc(F)cc2F)cc1 [ABD773, 2′,4′-Difluoro-N-((1 S,3R)-3-(hydroxymethyl)cyclopentyl)biphenyl-4-sulfonamide]
- IC50 (J774 macrophages): 130 nM
- solubility at 24 h [1]: 890 µg/mL (≈ 2420 µM)

Structure (SMILES): O=S(=O)(N[C@H]1CC[C@@H](CO)CC1)c1ccc(-c2ccc(F)cc2F)cc1 [ABD781, 2′,4′-Difluoro-N-(cis-4-(hydroxymethyl)cyclohexyl)biphenyl-4-sulfonamide]
- caspase 3 activation (fluorescence detected by light microscopy) (caspase 3): significant activation of caspase 3
- IC50 (J774 macrophages): 300 nM
- solubility at 24 h [1]: 590 µg/mL (≈ 1550 µM)
